ChEMBL document CHEMBL4673260, “Pyridine alkaloids with activity in the central nervous system” (Bioorg Med Chem, 2020)

How the values were obtained:
[1] = Induction of contextual fear extinction in fear-conditioned C57/BlJ6 mouse assessed as decrease in initial freezing behavior at 5 mg/kg administered for 1 week by contextual fear conditioning assay; type: functional; design: scale not given: the % may be the effect or the level left; conditions: time 1 weeks
[2] = molecular target: Neuropeptide Y receptor type 2 (Homo sapiens) (UniProt P49146); assay: Inhibition of human NPY2R expressed in CHO-K1 cells at 10 uM relative to control; type: cell-based
[3] = molecular target: Substance-P receptor (Homo sapiens) (UniProt P25103); assay: Inhibition of human NK1 at 10 uM relative to control
[4] = molecular target: Cysteinyl leukotriene receptor 1 (Homo sapiens) (UniProt Q9Y271); assay: Inhibition of human CYSLTR1 expressed in CHO-K1 cells at 10 uM relative to control; type: cell-based
Homo sapiens [5] = organism: Homo sapiens; assay: Inhibition of NOS (unknown origin) at 10 uM relative to control
Homo sapiens [6] = organism: Homo sapiens; assay: Inhibition of GABA receptor chloride/TBOB site (unknown origin) at 10 uM relative to control
Homo sapiens [7] = organism: Homo sapiens; assay: Inhibition of N-type calcium channel (unknown origin) at 10 uM relative to control
[8] = molecular target: Sigma non-opioid intracellular receptor 1 (Homo sapiens) (UniProt Q99720); assay: Inhibition of sigma 1 receptor (unknown origin) at 10 uM relative to control
[9] = molecular target: 5-hydroxytryptamine receptor 7 (Homo sapiens) (UniProt P34969); assay: Inhibition of human 5HT-7 receptor at 10 uM relative to control
Homo sapiens [10] = organism: Homo sapiens; assay: Inhibition of human 5HT-6 receptor at 10 uM relative to control
[11] = molecular target: 5-hydroxytryptamine receptor 4 (Homo sapiens) (UniProt Q13639); assay: Inhibition of 5HT-4 (unknown origin) receptor at 10 uM relative to control
[12] = molecular target: 5-hydroxytryptamine receptor 2C (Homo sapiens) (UniProt P28335); assay: Inhibition of human 5HT-2C receptor at 10 uM relative to control
[13] = molecular target: 5-hydroxytryptamine receptor 1A (Homo sapiens) (UniProt P08908); assay: Inhibition of human 5HT-1a receptor at 10 uM relative to control
Homo sapiens [14] = organism: Homo sapiens; assay: Inhibition of human delta 2-type opioid receptor at 10 uM relative to control
Homo sapiens [15] = organism: Homo sapiens; assay: Inhibition of nAChR (unknown origin) at 10 uM relative to control
[16] = molecular target: Muscarinic acetylcholine receptor M5 (Homo sapiens) (UniProt P08912); assay: Inhibition of human muscarinic M5 receptor expressed in CHO-K1 cells at 10 uM relative to control; type: cell-based
[17] = molecular target: Muscarinic acetylcholine receptor M2 (Homo sapiens) (UniProt P08172); assay: Inhibition of human muscarinic M2 receptor expressed in CHO-K1 cells at 10 uM relative to control; type: cell-based
[18] = molecular target: Muscarinic acetylcholine receptor M3 (Homo sapiens, UniProt P20309); assay: Inhibition of human muscarinic M3 receptor expressed in CHO-K1 cells at 10 uM relative to control; type: cell-based
[19] = molecular target: Histamine H2 receptor (Homo sapiens) (UniProt P25021); assay: Inhibition of human histamine H2 receptor expressed in CHO-K1 cells at 10 uM relative to control; type: cell-based
Homo sapiens [20] = organism: Homo sapiens; assay: Inhibition of Glutamate receptor ionotropic NMDA glycine,strychnine-sensitive site (unknown origin) at 10 uM relative to control
Homo sapiens [21] = organism: Homo sapiens; assay: Inhibition of Glutamate receptor ionotropic NMDA phencyclidine site (unknown origin) at 10 uM relative to control
Homo sapiens [22] = organism: Homo sapiens; assay: Inhibition of Glutamate receptor ionotropic AMPA site (unknown origin) at 10 uM relative to control
[23] = molecular target: Gamma-aminobutyric acid type B receptor subunit 1 (Homo sapiens) (UniProt Q9UBS5); assay: Inhibition of human GABA-B1 at 10 uM relative to control
[24] = molecular target: Gamma-aminobutyric acid receptor subunit alpha-1 (Homo sapiens) (UniProt P14867); assay: Inhibition of GABA-A alpha1 BDZ site (unknown origin) at 10 uM relative to control
[25] = molecular target: D(2) dopamine receptor (Homo sapiens) (UniProt P14416); assay: Inhibition of human dopamine D2S receptor expressed in CHO-K1 cells at 10 uM relative to control; type: cell-based
D(3) dopamine receptor = D(3) dopamine receptor (Homo sapiens, UniProt P35462); assay: Inhibition of human dopamine D3 receptor expressed in CHO-K1 cells at 10 uM relative to control; type: cell-based
[26] = molecular target: Alpha-2B adrenergic receptor (Homo sapiens) (UniProt P18089); assay: Inhibition of human adrenergic receptor alpha2B expressed in CHO-K1 cells at 10 uM relative to control; type: cell-based
Homo sapiens [27] = organism: Homo sapiens; assay: Inhibition of human adenosine transporter at 10 uM relative to control

Cysteinyl leukotriene receptor 1 (Homo sapiens), sequence (Q9Y271 whole entry): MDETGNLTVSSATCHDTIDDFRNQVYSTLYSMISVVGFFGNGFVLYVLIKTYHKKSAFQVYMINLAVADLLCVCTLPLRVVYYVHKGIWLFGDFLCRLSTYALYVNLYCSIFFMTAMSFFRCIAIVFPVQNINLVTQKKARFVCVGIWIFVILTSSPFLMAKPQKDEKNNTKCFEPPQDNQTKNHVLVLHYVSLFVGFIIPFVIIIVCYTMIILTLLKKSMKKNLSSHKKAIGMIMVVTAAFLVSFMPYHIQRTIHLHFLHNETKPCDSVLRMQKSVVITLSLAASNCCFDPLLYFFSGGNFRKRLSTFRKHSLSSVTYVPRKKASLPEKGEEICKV
Gamma-aminobutyric acid type B receptor subunit 1 (Homo sapiens), sequence (Q9UBS5 whole entry): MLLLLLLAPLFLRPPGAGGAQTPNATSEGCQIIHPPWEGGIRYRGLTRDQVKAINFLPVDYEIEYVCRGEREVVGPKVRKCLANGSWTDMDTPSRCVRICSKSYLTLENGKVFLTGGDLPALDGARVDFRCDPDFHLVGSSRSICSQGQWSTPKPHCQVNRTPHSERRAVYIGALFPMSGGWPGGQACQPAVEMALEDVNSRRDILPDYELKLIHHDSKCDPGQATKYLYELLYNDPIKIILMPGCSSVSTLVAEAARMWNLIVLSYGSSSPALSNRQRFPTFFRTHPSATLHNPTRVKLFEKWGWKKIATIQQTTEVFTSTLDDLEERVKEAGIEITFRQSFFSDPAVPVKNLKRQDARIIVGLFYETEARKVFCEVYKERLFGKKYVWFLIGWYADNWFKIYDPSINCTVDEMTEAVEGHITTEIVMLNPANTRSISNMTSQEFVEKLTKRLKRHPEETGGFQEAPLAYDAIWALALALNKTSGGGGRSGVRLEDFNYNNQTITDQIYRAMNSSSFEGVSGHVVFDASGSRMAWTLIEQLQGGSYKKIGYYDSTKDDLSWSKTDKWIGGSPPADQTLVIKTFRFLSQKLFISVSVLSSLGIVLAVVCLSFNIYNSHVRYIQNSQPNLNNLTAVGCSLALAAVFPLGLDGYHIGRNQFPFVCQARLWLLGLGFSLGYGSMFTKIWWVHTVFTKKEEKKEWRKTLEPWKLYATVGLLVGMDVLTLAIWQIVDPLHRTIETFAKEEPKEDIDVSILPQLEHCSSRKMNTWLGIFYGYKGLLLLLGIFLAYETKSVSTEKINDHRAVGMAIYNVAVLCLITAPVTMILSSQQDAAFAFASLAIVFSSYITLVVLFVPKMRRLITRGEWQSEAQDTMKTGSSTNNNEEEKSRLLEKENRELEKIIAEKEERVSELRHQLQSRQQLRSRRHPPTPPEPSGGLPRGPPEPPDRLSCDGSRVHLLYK
Sigma non-opioid intracellular receptor 1 (Homo sapiens), sequence (Q99720 whole entry): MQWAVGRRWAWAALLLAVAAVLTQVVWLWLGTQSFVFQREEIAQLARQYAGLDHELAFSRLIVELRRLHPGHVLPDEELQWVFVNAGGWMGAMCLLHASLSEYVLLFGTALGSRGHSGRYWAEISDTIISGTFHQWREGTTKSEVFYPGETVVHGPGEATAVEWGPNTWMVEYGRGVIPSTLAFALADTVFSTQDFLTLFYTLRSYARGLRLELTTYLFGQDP
Muscarinic acetylcholine receptor M2 (Homo sapiens), sequence (P08172 whole entry): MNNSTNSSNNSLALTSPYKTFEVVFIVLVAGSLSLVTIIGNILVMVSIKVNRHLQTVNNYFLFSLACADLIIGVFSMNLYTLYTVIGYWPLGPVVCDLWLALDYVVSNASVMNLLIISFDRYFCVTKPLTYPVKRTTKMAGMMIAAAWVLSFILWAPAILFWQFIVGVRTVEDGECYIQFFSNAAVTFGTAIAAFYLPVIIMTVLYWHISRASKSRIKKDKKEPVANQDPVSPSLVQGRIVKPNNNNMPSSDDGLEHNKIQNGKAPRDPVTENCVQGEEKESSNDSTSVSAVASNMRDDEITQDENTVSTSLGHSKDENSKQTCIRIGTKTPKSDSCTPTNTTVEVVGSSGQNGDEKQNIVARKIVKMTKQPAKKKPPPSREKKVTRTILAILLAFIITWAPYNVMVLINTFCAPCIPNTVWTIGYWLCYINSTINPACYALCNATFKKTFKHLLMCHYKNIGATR
Neuropeptide Y receptor type 2 (Homo sapiens), sequence (P49146 whole entry): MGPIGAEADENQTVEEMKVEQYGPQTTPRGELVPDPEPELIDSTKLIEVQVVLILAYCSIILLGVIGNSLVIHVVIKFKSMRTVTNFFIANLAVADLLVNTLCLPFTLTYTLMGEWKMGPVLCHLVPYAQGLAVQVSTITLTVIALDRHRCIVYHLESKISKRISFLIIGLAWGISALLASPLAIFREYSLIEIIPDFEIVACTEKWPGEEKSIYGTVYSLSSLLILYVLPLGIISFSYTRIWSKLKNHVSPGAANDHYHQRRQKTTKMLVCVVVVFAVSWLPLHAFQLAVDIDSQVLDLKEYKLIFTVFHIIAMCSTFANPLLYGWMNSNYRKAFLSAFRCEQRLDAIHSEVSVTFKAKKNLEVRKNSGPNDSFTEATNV
Histamine H2 receptor (Homo sapiens), sequence (P25021 whole entry): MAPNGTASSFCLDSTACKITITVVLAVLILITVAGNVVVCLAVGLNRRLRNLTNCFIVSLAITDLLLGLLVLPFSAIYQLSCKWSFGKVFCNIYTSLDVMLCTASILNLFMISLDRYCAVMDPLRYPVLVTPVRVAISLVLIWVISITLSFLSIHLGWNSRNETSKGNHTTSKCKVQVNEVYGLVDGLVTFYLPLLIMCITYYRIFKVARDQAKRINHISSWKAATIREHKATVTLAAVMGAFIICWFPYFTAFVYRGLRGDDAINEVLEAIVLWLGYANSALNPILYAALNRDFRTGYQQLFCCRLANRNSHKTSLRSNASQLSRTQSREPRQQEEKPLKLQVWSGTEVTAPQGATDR
5-hydroxytryptamine receptor 1A (Homo sapiens), sequence (P08908 whole entry): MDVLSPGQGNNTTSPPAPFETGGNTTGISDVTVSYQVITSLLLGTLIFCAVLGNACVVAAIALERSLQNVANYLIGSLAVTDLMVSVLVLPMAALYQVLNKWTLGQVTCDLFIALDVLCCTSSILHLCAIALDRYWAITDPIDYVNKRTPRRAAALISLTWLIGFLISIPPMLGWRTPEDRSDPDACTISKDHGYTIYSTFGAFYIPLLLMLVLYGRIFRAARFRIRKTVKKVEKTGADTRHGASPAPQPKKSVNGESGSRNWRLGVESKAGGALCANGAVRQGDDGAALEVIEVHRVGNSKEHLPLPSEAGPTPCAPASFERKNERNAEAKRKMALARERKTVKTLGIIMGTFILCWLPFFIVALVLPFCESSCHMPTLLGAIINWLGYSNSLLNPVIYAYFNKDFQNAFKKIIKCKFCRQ
Gamma-aminobutyric acid receptor subunit alpha-1 (Homo sapiens), sequence (P14867 whole entry): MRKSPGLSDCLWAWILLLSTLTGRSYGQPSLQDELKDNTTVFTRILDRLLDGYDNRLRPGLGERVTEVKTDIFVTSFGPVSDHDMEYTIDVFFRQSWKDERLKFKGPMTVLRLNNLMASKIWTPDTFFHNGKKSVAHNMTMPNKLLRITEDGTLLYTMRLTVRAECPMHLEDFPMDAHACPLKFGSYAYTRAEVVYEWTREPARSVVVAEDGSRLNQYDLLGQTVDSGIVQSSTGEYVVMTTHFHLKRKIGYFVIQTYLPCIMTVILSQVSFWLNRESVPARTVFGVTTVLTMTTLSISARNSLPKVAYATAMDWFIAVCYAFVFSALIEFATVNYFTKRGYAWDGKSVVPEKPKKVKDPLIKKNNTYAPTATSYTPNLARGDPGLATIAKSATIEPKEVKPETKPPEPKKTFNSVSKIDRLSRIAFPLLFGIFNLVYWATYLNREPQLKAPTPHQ
5-hydroxytryptamine receptor 7 (Homo sapiens), sequence (P34969 whole entry): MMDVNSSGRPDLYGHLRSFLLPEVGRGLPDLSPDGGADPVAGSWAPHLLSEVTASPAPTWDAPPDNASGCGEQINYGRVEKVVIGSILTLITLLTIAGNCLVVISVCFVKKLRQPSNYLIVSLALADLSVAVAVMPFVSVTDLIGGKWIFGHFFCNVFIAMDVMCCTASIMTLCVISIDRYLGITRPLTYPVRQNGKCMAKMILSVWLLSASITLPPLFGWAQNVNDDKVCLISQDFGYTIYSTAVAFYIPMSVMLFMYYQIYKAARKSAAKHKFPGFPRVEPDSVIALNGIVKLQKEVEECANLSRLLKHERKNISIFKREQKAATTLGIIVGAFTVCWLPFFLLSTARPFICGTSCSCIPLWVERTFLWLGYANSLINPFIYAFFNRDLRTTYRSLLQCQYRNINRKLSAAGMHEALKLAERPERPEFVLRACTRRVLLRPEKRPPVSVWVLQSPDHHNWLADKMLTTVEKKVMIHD
Muscarinic acetylcholine receptor M3, sequence (P20309 whole entry, looked up): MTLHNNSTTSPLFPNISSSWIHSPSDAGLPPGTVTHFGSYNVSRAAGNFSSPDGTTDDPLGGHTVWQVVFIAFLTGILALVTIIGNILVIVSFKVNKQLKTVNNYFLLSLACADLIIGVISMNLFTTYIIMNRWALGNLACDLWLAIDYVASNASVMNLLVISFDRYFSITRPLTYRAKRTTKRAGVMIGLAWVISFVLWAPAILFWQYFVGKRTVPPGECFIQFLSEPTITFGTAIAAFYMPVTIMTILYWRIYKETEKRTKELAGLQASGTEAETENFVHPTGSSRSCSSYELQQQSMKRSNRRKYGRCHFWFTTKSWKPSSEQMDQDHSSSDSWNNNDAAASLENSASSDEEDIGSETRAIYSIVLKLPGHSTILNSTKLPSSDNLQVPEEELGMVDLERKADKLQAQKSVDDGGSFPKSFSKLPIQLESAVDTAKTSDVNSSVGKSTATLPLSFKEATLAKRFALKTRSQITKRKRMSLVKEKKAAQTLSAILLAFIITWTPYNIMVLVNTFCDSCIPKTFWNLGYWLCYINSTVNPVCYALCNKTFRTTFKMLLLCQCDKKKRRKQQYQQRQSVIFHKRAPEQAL

Q: For CN1C(=O)CC[C@H]1c1cccnc1 [COTININE], which Activity [1] is on record?
A: >=20%

Q: And the inhibition [2]?
A: < 50%

Q: And the inhibition [3]?
A: < 50%

Q: What about the inhibition [4] of the same compound?
A: < 50%

Q: What about the inhibition (Homo sapiens [5]) of the same compound?
A: < 50%

Q: And the inhibition (Homo sapiens [6])?
A: < 50%

Q: And the inhibition (Homo sapiens [7])?
A: < 50%

Q: And the inhibition [8]?
A: < 50%

Q: What about the inhibition [9] of the same compound?
A: < 50%

Q: And the inhibition (Homo sapiens [10])?
A: < 50%

Q: What about the inhibition [11] of the same compound?
A: < 50%

Q: And the inhibition [12]?
A: < 50%

Q: And the inhibition [13]?
A: < 50%

Q: And the inhibition (Homo sapiens [14])?
A: < 50%

Q: And the inhibition (Homo sapiens [15])?
A: < 50%

Q: And the inhibition [16]?
A: < 50%

Q: And the inhibition [17]?
A: < 50%

Q: And the inhibition [18]?
A: < 50%

Q: What about the inhibition [19] of the same compound?
A: < 50%

Q: And the inhibition (Homo sapiens [20])?
A: < 50%

Q: What about the inhibition (Homo sapiens [21]) of the same compound?
A: < 50%

Q: And the inhibition (Homo sapiens [22])?
A: < 50%

Q: What about the inhibition [23] of the same compound?
A: < 50%

Q: And the inhibition [24]?
A: < 50%

Q: What about the inhibition [25] of the same compound?
A: < 50%

Q: And the inhibition (D(3) dopamine receptor)?
A: < 50%

Q: What about the inhibition [26] of the same compound?
A: < 50%

Q: What about the inhibition (Homo sapiens [27]) of the same compound?
A: < 50%
